Data from BindingDB's records for doi:10.1016/s0014-2999(02)01314-6 (Takeda Chemical Industries, 2002).

Biological target: Melanin-concentrating hormone receptor 1 (Rattus norvegicus, UniProt P97639)
Sequence (P97639 whole entry): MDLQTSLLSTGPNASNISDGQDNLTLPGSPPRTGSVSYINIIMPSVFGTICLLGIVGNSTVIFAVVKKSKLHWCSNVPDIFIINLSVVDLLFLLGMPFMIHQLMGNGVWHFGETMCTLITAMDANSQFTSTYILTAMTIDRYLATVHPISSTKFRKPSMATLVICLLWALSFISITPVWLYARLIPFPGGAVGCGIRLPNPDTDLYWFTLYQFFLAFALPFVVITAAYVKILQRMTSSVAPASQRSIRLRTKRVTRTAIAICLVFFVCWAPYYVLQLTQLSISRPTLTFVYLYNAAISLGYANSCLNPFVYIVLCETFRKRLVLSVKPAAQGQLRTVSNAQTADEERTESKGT

**Q.** Which Ki does the source give for `CN(C)CC1CCc2cc(NC(=O)c3ccc(-c4ccc(F)cc4)cc3)ccc2C1` (stereo unspecified) [4''-Fluoro-biphenyl-4-carboxylic acid (6-dimethylaminomethyl-5,6,7,8-tetrahydro-naphthalen-2-yl)-amide] here?
**A.** Its Ki is 8.6 nM.
